Data from US4698327A, “Novel glycopeptide derivatives” (priority 1986, dated 1987).
Converted amounts (≈) assume the structure as drawn.

Key:
[1] = test system: Staphylococcus aureus V41; experiment: MIC, standard agar-dilution assay; type: cell-based
[2] = test system: Staphylococcus aureus X400; experiment: MIC, standard agar-dilution assay; type: cell-based
[3] = test system: Staphylococcus aureus S13E; type: cell-based; conditions: agar dilution
[4] = test system: Staphylococcus epidermidis EPI1; type: cell-based; conditions: agar dilution
[5] = test system: Staphylococcus epidermidis 222; experiment: MIC, standard agar-dilution assay; type: cell-based
[6] = test system: Streptococcus pyogenes C203; experiment: MIC, standard agar-dilution assay; type: cell-based
[7] = test system: Streptococcus pneumoniae Park 1; type: cell-based; conditions: agar dilution
[8] = test system: Streptococcus faecium ATCC 9790; experiment: MIC, standard agar-dilution assay; type: cell-based
[9] = test system: Streptococcus sp. group D 2041; experiment: MIC, standard agar-dilution assay; type: cell-based
[10] = test system: Haemophilus influenzae C.L.; experiment: MIC, standard agar-dilution assay; type: cell-based
[11] = test system: Haemophilus influenzae 76; experiment: MIC, standard agar-dilution assay; type: cell-based
Escherichia coli N10 = experiment: MIC, standard agar-dilution assay; type: cell-based
Escherichia coli EC14 = experiment: MIC, standard agar-dilution assay; type: cell-based
Escherichia coli TEM = experiment: MIC, standard agar-dilution assay; type: cell-based
[12] = test system: Klebsiella pneumoniae X26; experiment: MIC, standard agar-dilution assay; type: cell-based
[13] = test system: Klebsiella pneumoniae X68; experiment: MIC, standard agar-dilution assay; type: cell-based
[14] = test system: Klebsiella pneumoniae KAE; experiment: MIC, standard agar-dilution assay; type: cell-based
[15] = test system: Staphylococcus aureus NRRL B313; conditions: agar dilution
Staphylococcus aureus = Staphylococcus aureus infection in mice; two doses, administered subcutaneously
Streptococcus pyogenes = Streptococcus pyogenes infection in mice; two doses, administered subcutaneously
Streptococcus pneumoniae = Streptococcus pneumoniae infection in mice; two doses, administered subcutaneously

`CCCCOc1ccc(CNC2(C)CC(OC3C(Oc4c5cc6cc4Oc4ccc(cc4Cl)C(O)C4NC(=O)C(NC(=O)C6NC(=O)C(CC(N)=O)NC(=O)C(NC(=O)C(CC(C)C)NC)C(O)c6ccc(c(Cl)c6)O5)c5ccc(O)c(c5)-c5c(O)cc(O)cc5C(C(=O)O)NC4=O)OC(CO)C(O)C3O)OC(C)C2O)cc1` (stereo not drawn) [Example 84, N^van --( -p-butoxybenzyl)vancomycin] was tested. Which MIC [1] did it give?
The MIC was 0.125 µg/mL (≈ 0.0776 µM).

What about the MIC [2] of the same compound?
Its MIC is 0.125 µg/mL (≈ 0.0776 µM).

What about the MIC [3] of the same compound?
The MIC was 0.125 µg/mL (≈ 0.0776 µM).

What about the MIC [4] of the same compound?
Its MIC is 0.25 µg/mL (≈ 0.155 µM).

And the MIC [5]?
Its MIC is 0.25 µg/mL (≈ 0.155 µM).

What about the MIC [6] of the same compound?
The MIC was 0.06 µg/mL (≈ 0.0372 µM).

What about the MIC [7] of the same compound?
The MIC was 0.03 µg/mL (≈ 0.0186 µM).

And the MIC [8]?
Its MIC is 0.125 µg/mL (≈ 0.0776 µM).

And the MIC [9]?
Its MIC is 0.25 µg/mL (≈ 0.155 µM).

What about the MIC [10] of the same compound?
Its MIC is 32 µg/mL (≈ 19.9 µM).

What about the MIC [11] of the same compound?
The MIC was 64 µg/mL (≈ 39.7 µM).

And the MIC (Escherichia coli N10)?
The MIC was greater than 128 µg/mL.

What about the MIC (Escherichia coli EC14) of the same compound?
Its MIC is greater than 128 µg/mL.

What about the MIC (Escherichia coli TEM) of the same compound?
Its MIC is greater than 128 µg/mL.

What about the MIC [12] of the same compound?
Its MIC is greater than 128 µg/mL.

What about the MIC [13] of the same compound?
Its MIC is greater than 128 µg/mL.

What about the MIC [14] of the same compound?
Its MIC is greater than 128 µg/mL.

What about the MIC [15] of the same compound?
Its MIC is 0.125 µg/mL (≈ 0.0776 µM).

What about the ED50 (Staphylococcus aureus) of the same compound?
Its ED50 is 0.65 mg/kg/2.

What about the ED50 (Streptococcus pyogenes) of the same compound?
Its ED50 is 0.69 mg/kg/2.

And the ED50 (Streptococcus pneumoniae)?
Its ED50 is 1.14 mg/kg/2.

For `CCCCCCCCc1ccc(CNC2(C)CC(OC3C(Oc4c5cc6cc4Oc4ccc(cc4Cl)C(O)C4NC(=O)C(NC(=O)C6NC(=O)C(CC(N)=O)NC(=O)C(NC(=O)C(CC(C)C)NC)C(O)c6ccc(c(Cl)c6)O5)c5ccc(O)c(c5)-c5c(O)cc(O)cc5C(C(=O)O)NC4=O)OC(CO)C(O)C3O)OC(C)C2O)cc1` (stereo not drawn) [Example 93, N^van --( -p-octylbenzyl)vancomycin], which MIC [1] is on record?
The MIC was 1 µg/mL (≈ 0.605 µM).

And the MIC [2]?
Its MIC is 1 µg/mL (≈ 0.605 µM).

What about the MIC [3] of the same compound?
The MIC was 0.5 µg/mL (≈ 0.303 µM).

What about the MIC [4] of the same compound?
Its MIC is 2 µg/mL (≈ 1.21 µM).

And the MIC [5]?
Its MIC is 1 µg/mL (≈ 0.605 µM).

What about the MIC [6] of the same compound?
The MIC was 0.25 µg/mL (≈ 0.151 µM).

What about the MIC [7] of the same compound?
Its MIC is 0.25 µg/mL (≈ 0.151 µM).

What about the MIC [8] of the same compound?
The MIC was 0.25 µg/mL (≈ 0.151 µM).

What about the MIC [9] of the same compound?
The MIC was 0.5 µg/mL (≈ 0.303 µM).

What about the MIC [10] of the same compound?
The MIC was greater than 128 µg/mL.

What about the MIC [11] of the same compound?
Its MIC is greater than 128 µg/mL.

And the MIC (Escherichia coli N10)?
The MIC was greater than 128 µg/mL.

And the MIC (Escherichia coli EC14)?
The MIC was greater than 128 µg/mL.

What about the MIC (Escherichia coli TEM) of the same compound?
Its MIC is greater than 128 µg/mL.

And the MIC [12]?
The MIC was greater than 128 µg/mL.

And the MIC [13]?
Its MIC is greater than 128 µg/mL.

What about the MIC [14] of the same compound?
The MIC was greater than 128 µg/mL.

What about the MIC [15] of the same compound?
Its MIC is 0.5 µg/mL (≈ 0.303 µM).

What about the ED50 (Staphylococcus aureus) of the same compound?
Its ED50 is 0.19 mg/kg/2.

What about the ED50 (Streptococcus pyogenes) of the same compound?
Its ED50 is 0.62 mg/kg/2.

And the ED50 (Streptococcus pneumoniae)?
Its ED50 is 0.23 mg/kg/2.

For `CNC(CC(C)C)C(=O)NC1C(=O)NC(CC(N)=O)C(=O)NC2C(=O)NC3C(=O)NC(C(=O)NC(C(=O)O)c4cc(O)cc(O)c4-c4cc3ccc4O)C(O)c3ccc(c(Cl)c3)Oc3cc2cc(c3OC2OC(CO)C(O)C(O)C2OC2CC(C)(NCc3ccc(Br)cc3)C(O)C(C)O2)Oc2ccc(cc2Cl)C1O` (stereo not drawn) [Example 80, N^van --( -p-bromobenzyl)vancomycin], which MIC [1] is on record?
Its MIC is 0.5 µg/mL (≈ 0.309 µM).

And the MIC [2]?
Its MIC is 0.25 µg/mL (≈ 0.154 µM).

What about the MIC [3] of the same compound?
Its MIC is 0.25 µg/mL (≈ 0.154 µM).

What about the MIC [4] of the same compound?
Its MIC is 1 µg/mL (≈ 0.618 µM).

What about the MIC [5] of the same compound?
The MIC was 0.5 µg/mL (≈ 0.309 µM).

What about the MIC [6] of the same compound?
The MIC was 0.25 µg/mL (≈ 0.154 µM).

And the MIC [7]?
Its MIC is 0.03 µg/mL (≈ 0.0185 µM).

And the MIC [8]?
Its MIC is 0.25 µg/mL (≈ 0.154 µM).

And the MIC [9]?
The MIC was 1 µg/mL (≈ 0.618 µM).

And the MIC [10]?
Its MIC is 64 µg/mL (≈ 39.5 µM).

And the MIC [11]?
The MIC was 64 µg/mL (≈ 39.5 µM).

And the MIC (Escherichia coli N10)?
Its MIC is greater than 128 µg/mL.

And the MIC (Escherichia coli EC14)?
The MIC was greater than 128 µg/mL.

What about the MIC (Escherichia coli TEM) of the same compound?
The MIC was greater than 128 µg/mL.

And the MIC [12]?
The MIC was greater than 128 µg/mL.

What about the MIC [13] of the same compound?
Its MIC is greater than 128 µg/mL.

What about the MIC [14] of the same compound?
Its MIC is greater than 128 µg/mL.

What about the MIC [15] of the same compound?
The MIC was 0.25 µg/mL (≈ 0.154 µM).

What about the ED50 (Staphylococcus aureus) of the same compound?
Its ED50 is 1.34 mg/kg/2.

And the ED50 (Streptococcus pyogenes)?
Its ED50 is 0.78 mg/kg/2.

And the ED50 (Streptococcus pneumoniae)?
The ED50 was 0.41 mg/kg/2.

With `CCCCc1ccc(CNC2(C)CC(OC3C(Oc4c5cc6cc4Oc4ccc(cc4Cl)C(O)C4NC(=O)C(NC(=O)C6NC(=O)C(CC(N)=O)NC(=O)C(NC(=O)C(CC(C)C)NC)C(O)c6ccc(c(Cl)c6)O5)c5ccc(O)c(c5)-c5c(O)cc(O)cc5C(C(=O)O)NC4=O)OC(CO)C(O)C3O)OC(C)C2O)cc1` (stereo not drawn) [Example 81, N^van --( -p-butylbenzyl)vancomycin] as the compound, how does the MIC [1] read?
Its MIC is 0.125 µg/mL (≈ 0.0783 µM).

What about the MIC [2] of the same compound?
The MIC was 0.125 µg/mL (≈ 0.0783 µM).

What about the MIC [3] of the same compound?
The MIC was 0.06 µg/mL (≈ 0.0376 µM).

And the MIC [4]?
The MIC was 0.25 µg/mL (≈ 0.157 µM).

What about the MIC [5] of the same compound?
Its MIC is 0.125 µg/mL (≈ 0.0783 µM).

And the MIC [6]?
The MIC was 0.06 µg/mL (≈ 0.0376 µM).

And the MIC [7]?
Its MIC is 0.06 µg/mL (≈ 0.0376 µM).

What about the MIC [8] of the same compound?
The MIC was 0.06 µg/mL (≈ 0.0376 µM).

What about the MIC [9] of the same compound?
The MIC was 0.25 µg/mL (≈ 0.157 µM).

And the MIC [10]?
Its MIC is 32 µg/mL (≈ 20.1 µM).

And the MIC [11]?
The MIC was 32 µg/mL (≈ 20.1 µM).

And the MIC (Escherichia coli N10)?
The MIC was greater than 128 µg/mL.

And the MIC (Escherichia coli EC14)?
The MIC was greater than 128 µg/mL.

What about the MIC (Escherichia coli TEM) of the same compound?
The MIC was greater than 128 µg/mL.

And the MIC [12]?
The MIC was greater than 128 µg/mL.

What about the MIC [13] of the same compound?
The MIC was greater than 128 µg/mL.

What about the MIC [14] of the same compound?
Its MIC is greater than 128 µg/mL.

What about the MIC [15] of the same compound?
The MIC was 0.06 µg/mL (≈ 0.0376 µM).

And the ED50 (Staphylococcus aureus)?
The ED50 was 0.74 mg/kg/2.

What about the ED50 (Streptococcus pyogenes) of the same compound?
The ED50 was 1.16 mg/kg/2.

And the ED50 (Streptococcus pneumoniae)?
Its ED50 is 1.26 mg/kg/2.
